From patent US6191115A, “C-terminus modified heptapeptide LHRH analogs” (Abbott Laboratories, priority 1999, dated 2001)
Non-standard residues stand in square brackets, D forms with d. Residues, ends and D or L forms follow the SMILES beside them. *: point of attachment. dPhe(4-Cl) = N[C@H](Cc1ccc(Cl)cc1)C(=O)O; d2Nal = N[C@H](Cc1ccc2ccccc2c1)C(=O)O; NMeY = CN[C@@H](Cc1ccc(O)cc1)C(=O)O; d3Pal = N[C@H](Cc1cccnc1)C(=O)O; Nicotinoyl = O=C(c1cccnc1)*; X13 = C(CN*)CN1CCOCC1; NH(CH2)4OH = OCCCCN*; X1 = CC1CCCCN1CCCN*; X3 = O=C1CCCN1CCCN*

Biological target: T1, LH release from rat pituitary cells (Rattus norvegicus, UniProt P30969)
T1 sequence (P30969 1-327): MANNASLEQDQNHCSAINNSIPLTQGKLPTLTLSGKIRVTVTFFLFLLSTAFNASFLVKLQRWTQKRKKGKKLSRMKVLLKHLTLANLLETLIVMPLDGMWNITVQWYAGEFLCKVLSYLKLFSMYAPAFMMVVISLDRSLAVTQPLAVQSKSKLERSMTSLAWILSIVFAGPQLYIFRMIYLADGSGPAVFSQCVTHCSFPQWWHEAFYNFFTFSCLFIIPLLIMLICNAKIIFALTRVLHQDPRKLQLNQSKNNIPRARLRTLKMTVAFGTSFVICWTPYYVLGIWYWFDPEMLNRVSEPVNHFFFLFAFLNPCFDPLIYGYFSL
Assay: in vitro inhibition of LH release from rat pituitary cells (pA2)
Type: cell-based
Conditions: pA2 = negative logarithm of antagonist concentration required to shift the response curve of the agonist leuprolide to two-fold higher concentration

SMILES | LHRH antagonist potency (pA2)
CC(=O)N[C@H](Cc1ccc2ccccc2c1)C(=O)N[C@H](Cc1ccc(Cl)cc1)C(=O)N[C@H](Cc1cccnc1)C(=O)N[C@@H](CO)C(=O)N(C)[C@@H](Cc1ccc(O)cc1)C(=O)N[C@H](CCCCNC(=O)c1cccnc1)C(=O)N[C@@H](CC(C)C)C(=O)NCCCN1CCOCC1 [Example 31, NAcD2Nal-D4ClPhe-D3Pal-Ser-NMeTyr-DLys(Nic)-Leu-NH--CH2 CH2 CH2 -(1-morpholine)] (Ac-[d2Nal][dPhe(4-Cl)][d3Pal]S[NMeY][dK](Nicotinoyl)L-X13) | 9.30
CC(=O)N[C@H](Cc1ccc2ccccc2c1)C(=O)N[C@H](Cc1ccc(Cl)cc1)C(=O)N[C@H](Cc1cccnc1)C(=O)N[C@@H](CO)C(=O)N(C)[C@@H](Cc1ccc(O)cc1)C(=O)N[C@H](CCCCNC(=O)c1cccnc1)C(=O)N[C@@H](CC(C)C)C(=O)NCCCN1CCCCC1C (stereo partly drawn) [Example 32, NAcD2Nal-D4ClPhe-D3Pal-Ser-NMeTyr-DLys(Nic)-Leu-NH--CH2 CH2 CH2 -[1-(2-methyl)piperidine]] (Ac-[d2Nal][dPhe(4-Cl)][d3Pal]S[NMeY][dK](Nicotinoyl)L-X1) | 9.07
CC(=O)N[C@H](Cc1ccc2ccccc2c1)C(=O)N[C@H](Cc1ccc(Cl)cc1)C(=O)N[C@H](Cc1cccnc1)C(=O)N[C@@H](CO)C(=O)N(C)[C@@H](Cc1ccc(O)cc1)C(=O)N[C@H](CCCCNC(=O)c1cccnc1)C(=O)N[C@@H](CC(C)C)C(=O)NCCCN1CCCC1=O [Example 33, NAcD2Nal-D4ClPhe-D3Pal-Ser-NMeTyr-DLys(Nic)-Leu-NH--CH2 CH2 CH2 -(1-pyrrolidin-2-one)] (Ac-[d2Nal][dPhe(4-Cl)][d3Pal]S[NMeY][dK](Nicotinoyl)L-X3) | 8.30
CC(=O)N[C@H](Cc1ccc2ccccc2c1)C(=O)N[C@H](Cc1ccc(Cl)cc1)C(=O)N[C@H](Cc1cccnc1)C(=O)N[C@@H](CO)C(=O)N(C)[C@@H](Cc1ccc(O)cc1)C(=O)N[C@H](CCCCNC(=O)c1cccnc1)C(=O)N[C@@H](CC(C)C)C(=O)NCCCCO [Example 34, NAcD2Nal-D4ClPhe-D3Pal-Ser-NMeTyr-DLys(Nic)-Leu-NH--CH2 CH2 CH2 CH2 OH] (Ac-[d2Nal][dPhe(4-Cl)][d3Pal]S[NMeY][dK](Nicotinoyl)L-{NH(CH2)4OH}) | 8.71
